For five compounds, IC50 and Activity results are on record in ChEMBL document CHEMBL4610096, “Anti-inflammatory neo-Clerodane Diterpenoids from Ajuga pantantha” (J Nat Prod, 2020).

The structures appear in SMILES notation. Active and inactive are the calls of the source. The calls are words filed in the database; no cut-off is given here.

Data set [1] relates to BV-2. The data set is described as follows: Antiinflammatory activity in mouse BV2 cells assessed as reduction in LPS-induced nitric oxide production by griess assay. The format is functional, cell-based. (The Griess reaction detects nitrite, a stable product of nitric oxide.)
In data set [2] the test system is BV-2. The data set is described as follows: Antiinflammatory activity in mouse BV2 cells assessed as reduction in LPS-induced COX2 expression at 10 to 100 uM preincubated for 30 mins followed by LPS stimulation and measured after 24 hrs by Western blot analysis. The format is functional, cell-based. Background: A western blot detects proteins with antibodies after separation by electrophoresis.

Data set [3] deals with BV-2. Description: Cytotoxicity against mouse BV2 cells assessed as reduction in cell viability. The format is cell-based.
Data set [4] relates to BV-2. The data set is described as follows: Antiinflammatory activity in mouse BV2 cells assessed as reduction in LPS-induced iNOS expression at 10 to 100 uM preincubated for 30 mins followed by LPS stimulation and measured after 24 hrs by Western blot analysis. Format: functional, cell-based.

Take `CSC(=N)N`: the IC50 with BV-2 [1] turned out to be 2.4 µM.

Regarding `C/C=C(\C)C(=O)OC[C@@]12[C@H](CCC[C@]1(O)CCl)[C@@](C)(CCC1=CC(=O)OC1)[C@H](C)C[C@@H]2O`, the outcome in the data set with BV-2 [2] and in the data set with BV-2 [4] was Active. Also, the IC50 in the data set on BV-2 [1] came to 20.2 µM. The Activity entry in the data set on BV-2 [3] is “Non-Toxic”.

With `CC[C@H](C)C(=O)O[C@@H](C[C@@]1(C)[C@H](C)C[C@H](O)[C@]2(C)[C@@H]1CCC[C@H]2C(=O)OC)C1=CC(=O)OC1`, the IC50 in the data set with BV-2 [1] stood at 45 µM. The Activity result in the data set with BV-2 [3] is recorded as “Non-Toxic”.

For `C/C=C(\C)C(=O)O[C@@H](C[C@@]1(C)[C@H](C)C[C@H](O)[C@]2(C)[C@@H]1CCC[C@H]2C(=O)OC)C1=CC(=O)OC1`, the outcome with BV-2 [2] and with BV-2 [4] was Active. In the data set on BV-2 [1], the IC50 came out at 25.8 µM. The Activity result in the data set on BV-2 [3] is on record as “Non-Toxic”.

With `COC(=O)C/C(C=O)=C\C[C@@]1(C)[C@H](C)C[C@H](OC(C)=O)[C@]2(COC(C)=O)[C@@H]1[C@H](O)CC[C@]21CO1`, the IC50 in the data set with BV-2 [1] is greater than 100 µM. Besides, the Activity result in the data set with BV-2 [3] is listed as “Non-Toxic”.

As a reminder, the IC50 is the concentration that gives 50% inhibition.
